# Experiments:
# DPP-IV enzyme = molecular target: T1, DPP-IV enzyme (Homo sapiens, UniProt P27487); test: In vitro DPP-IV enzymatic assay; type: biochemical; details: means of three independent determinations
# T1 construct: purchased Cayman Chemical (only as the URL of the kit insert) 700210
# Excerpt: The prepared compounds were investigated in vitro for their ability to inhibit the DPP-IV enzyme, and the detailed method is already described in our previously published paper.
# [1] = system: STZ-induced diabetic rats; test: In vivo antidiabetic activity, STZ-induced T2DM model, fasting blood glucose; design: species or system Wistar rats; details: compounds 50 mg/kg, sitagliptin 10 mg/kg, daily for 21 days, six rats
# Excerpt: The antihyperglycemic potential of certain compounds was investigated in Wistar rats. STZ-induced diabetic rats were employed for the antihyperglycemic testing. The animal experiments were approved by the Institutional Animal Ethics Committee (IAEC) in New Delhi, India (Protocol Number: IAEC/MCP/009/2020). During the research period, the Committee for the Purpose of Control and Supervision of Experiments on Animals (CPCSEA) and IAEC criteria for animal care were followed.
# Rats were given a high-fat diet after one week of acclimation. Diabetes was induced in the animals as per the method each described in [25]. Rats were then divided into six groups with six animals. Group I served as normal control with normal rats receiving the vehicle only. Group II served as diabetes control in which rats received the vehicle only. […] Groups IV, V, and VI served as test groups and received compounds 1b, 5b, and 4c, respectively, at doses of 50 mg/kg b.w. The diabetic rats were given the tested compound suspended in 0.5% w/v CMC every day for 21 days. On days 1, 7, 14, and 21, blood samples were taken from the tail veins of each animal that had fasted overnight. A glucometer was used to measure blood glucose levels.
# rats = test: Acute toxicity studies (OECD guideline 423); type: in vivo; details: oral, 500 mg/kg body weight, monitored for 72 h
# Protocol: Acute toxicity studies were performed as per the OECD guideline 423. For compounds 1b, 4c, and 5b, three groups of six rats weighing 80–120 g were starved overnight and given the test compounds orally at doses of 200, 500, 1000, and 2000 mg/kg body weight. The animals were monitored for 72 h, for symptoms of acute toxicity, such as increased or reduced motor activity, tremors, convulsions, and drowsiness, among others. […] As a result, the OECD-recommended dosage for assessing the antidiabetic action was set at 50 mg/kg (i.e., […]).
# ob/ob mice = details: 10 mg/kg p.o., cited from earlier work
# T1 sequence (P27487 whole entry): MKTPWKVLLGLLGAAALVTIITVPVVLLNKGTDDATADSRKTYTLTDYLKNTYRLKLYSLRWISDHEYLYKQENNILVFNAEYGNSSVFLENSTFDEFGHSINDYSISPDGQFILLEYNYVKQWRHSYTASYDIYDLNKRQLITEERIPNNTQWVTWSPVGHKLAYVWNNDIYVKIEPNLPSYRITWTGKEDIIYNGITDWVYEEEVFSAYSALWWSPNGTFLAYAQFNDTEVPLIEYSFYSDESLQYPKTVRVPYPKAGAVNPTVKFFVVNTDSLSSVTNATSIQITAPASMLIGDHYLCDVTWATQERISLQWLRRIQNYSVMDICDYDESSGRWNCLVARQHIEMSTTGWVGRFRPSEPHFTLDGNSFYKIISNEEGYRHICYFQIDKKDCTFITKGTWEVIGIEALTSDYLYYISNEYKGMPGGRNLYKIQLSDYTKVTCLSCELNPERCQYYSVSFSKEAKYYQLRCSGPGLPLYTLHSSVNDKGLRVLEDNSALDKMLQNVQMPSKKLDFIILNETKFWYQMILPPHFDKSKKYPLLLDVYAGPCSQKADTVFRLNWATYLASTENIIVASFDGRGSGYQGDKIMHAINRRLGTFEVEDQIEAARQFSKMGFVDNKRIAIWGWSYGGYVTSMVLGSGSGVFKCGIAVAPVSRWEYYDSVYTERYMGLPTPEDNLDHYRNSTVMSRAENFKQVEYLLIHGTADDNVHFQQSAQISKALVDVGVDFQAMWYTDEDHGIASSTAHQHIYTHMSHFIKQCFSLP
Compound,inhibition at 50 µM (DPP-IV enzyme) [%],IC50 (DPP-IV enzyme) [µM],further results
"COc1ccccc1/C=N/NC(=O)C1=C(C)NC(=O)NC1c1ccccc1 (stereo not shown) [Compound 1c, (E)-N-(2-Methoxybenzylidene)-6-methyl-2-oxo-4-phenyl-1,2,3,4-tetrahydropyrimidine-5-carbohydrazide]",56.47 ± 0.37,39.72 ± 0.0027,
"CC1=C(C(=O)N/N=C/c2ccccc2O)C(c2ccccc2)NC(=O)N1 (stereo not shown) [Compound 1b, (E)-N-(2-Hydroxybenzylidene)-6-methyl-2-oxo-4-phenyl-1,2,3,4-tetrahydropyrimidine-5-carbohydrazide]",42.69 ± 0.28,54.73 ± 0.0025,"Fasting Blood Glucose ± SEM, On Day 1 [1]: 261.00 ± 8.44 mg/dL; Fasting Blood Glucose ± SEM, On Day 7 [1]: 215.03 ± 3.29 mg/dL; Fasting Blood Glucose ± SEM, On Day 14 [1]: 187.05 ± 6.48 mg/dL; Fasting Blood Glucose ± SEM, On Day 21 [1]: 160.12 ± 6.18 mg/dL; Acute toxicity, mortality (rats): more than half of the animals died"
"CC1=C(C(=O)N/N=C/c2ccccc2)C(c2ccccc2Cl)NC(=O)N1 (stereo not shown) [Compound 2a, (E)-N-Benzylidene-4-(2-chlorophenyl)-6-methyl-2-oxo-1,2,3,4-tetrahydropyrimidin-5-carbohydrazide]",61.25 ± 0.16,32.41 ± 0.0033,
"COc1ccc(/C=N/NC(=O)C2=C(C)NC(=O)NC2c2ccccc2Cl)cc1 (stereo not shown) [Compound 2d, (E)-4-(2-Chlorophenyl)-N-(4-methoxybenzylidene)-6-methyl-2-oxo-1,2,3,4-tetrahydropyrimidine-5-carbohydrazide]",64.78 ± 0.33,31.72 ± 0.0021,
"CC1=C(C(=O)N/N=C/c2ccccc2O)C(c2ccc(F)cc2F)NC(=O)N1 (stereo not shown) [Compound 5b, (E)--4-(2,4-Difluorophenyl)-N-(2-hydroxybenzyldene)-6-methyl-2-oxo-1,2,3,4-tetrahydropyrimidine-5-carbohydrazide]",70.7 ± 0.37,28.13 ± 0.0029,"Fasting Blood Glucose ± SEM, On Day 1 [1]: 253.83 ± 4.49 mg/dL; Fasting Blood Glucose ± SEM, On Day 7 [1]: 182.00 ± 8.11 mg/dL; Fasting Blood Glucose ± SEM, On Day 14 [1]: 167.16 ± 6.23 mg/dL; Fasting Blood Glucose ± SEM, On Day 21 [1]: 157.33 ± 5.75 mg/dL; Fasting Blood Glucose ± SEM, On Day 21 ([1]; listed as Compound 5b): 157.33 ± 5.75 mg/dL; Acute toxicity, mortality (rats): more than half of the animals died"
"CC1=C(C(=O)N/N=C/c2ccccc2)C(c2ccccc2)NC(=O)N1 (stereo not shown) [Compound 1a, (E)-N-Benzylidene-6-methyl-2-oxo-4-phenyl-1,2,3,4-tetrahydropyrimidine-5-carbohydrazide]",40.74 ± 0.38,58.95 ± 0.0012,
"COc1ccccc1/C=N/NC(=O)C1=C(C)NC(=O)NC1c1ccccc1Cl (stereo not shown) [Compound 2c, (E)-4-(2-Chlorophenyl)-N-(2-methoxybenzylidene)-6-methyl-2-oxo-1,2,3,4-tetrahydropyrimidine-5-carbohydrazide]",63.25 ± 0.05,33.97 ± 0.0025,
COc1ccccc1/C=N/NC(=O)C1=C(C)NC(=O)NC1c1ccc(Cl)cc1Cl (stereo not shown) [Compound 3c],61 ± 0.08,33.73 ± 0.0024,
"CC1=C(C(=O)N/N=C/c2ccccc2O)C(c2ccccc2Cl)NC(=O)N1 (stereo not shown) [Compound 2b, (E)-4-(2-Chlorophenyl)-N-(2-hydroxybenzylidene)-6-methyl-2-oxo-1,2,3,4-tetrahydropyrimidine-5-carbohydrazide]",65.5 ± 0.08,31.93 ± 0.0029,
"COc1ccc(/C=N/NC(=O)C2=C(C)NC(=O)NC2c2ccccc2)cc1 (stereo not shown) [Compound 1d, (E)-N-(4-Methoxybenzylidene)-6-methyl-2-oxo-4-phenyl-1,2,3,4-tetrahydropyrimidine-5-carbohydrazide]",57.74 ± 0.38,38.26 ± 0.005,
"CC1=C(C(=O)N/N=C/c2ccccc2)C(c2ccc(Cl)cc2Cl)NC(=O)N1 (stereo not shown) [Compound 3a, (E)-N-Benzylidene-4-(2,4-dichlorophenyl)-6-methyl-2-oxo-1,2,3,4-tetrahydropyrimidine-5-carbohydrazide]",61.25 ± 0.16,33.91 ± 0.0029,
"CC1=C(C(=O)N/N=C/c2ccccc2O)C(c2ccc(Cl)cc2Cl)NC(=O)N1 (stereo not shown) [Compound 3b, (E)--4-(2,4-Dichlorophenyl)-N-(2-hydroxybenzyldene)-6-methyl-2-oxo-1,2,3,4-tetrahydropyrimidine-5-carbohydrazide]",61 ± 0.08,33.79 ± 0.0021,
"COc1ccccc1/C=N/NC(=O)C1=C(C)NC(=O)NC1c1ccccc1F (stereo not shown) [Compound 4c, (E)--4-(2-Fluorophenyl)-N-(2-methoxybenzyldene)-6-methyl-2-oxo-1,2,3,4-tetrahydropyrimidine-5-carbohydrazide]",60.4 ± 0.08,34.94 ± 0.0016,"Fasting Blood Glucose ± SEM, On Day 1 [1]: 264.66 ± 5.70 mg/dL; Fasting Blood Glucose ± SEM, On Day 7 [1]: 237.16 ± 9.01 mg/dL; Fasting Blood Glucose ± SEM, On Day 14 [1]: 194.83 ± 4.81 mg/dL; Fasting Blood Glucose ± SEM, On Day 21 [1]: 169.66 ± 8.53 mg/dL; Acute toxicity, mortality (rats): more than half of the animals died"
"N[C@@H](CC(=O)N1CCn2c(nnc2C(F)(F)F)C1)Cc1cc(F)c(F)cc1F [Sitagliptin, reference compound]",,,"Fasting Blood Glucose ± SEM, On Day 1 [1]: 240.16 ± 9.88 mg/dL; Fasting Blood Glucose ± SEM, On Day 7 [1]: 178.66 ± 6.92 mg/dL; Fasting Blood Glucose ± SEM, On Day 14 [1]: 175.16 ± 8.61 mg/dL; Fasting Blood Glucose ± SEM, On Day 21 [1]: 133.50 ± 11.80 mg/dL; Long-term inhibition (ob/ob mice; after 8 h): > 70%; Glucose excursion (ob/ob mice; at 8 h): 35%"

# Now from value to molecule, other results behind:
inhibition at 50 µM (DPP-IV enzyme) [%],IC50 (DPP-IV enzyme) [µM],Compound,further results
57.74 ± 0.38,38.62 ± 0.0025,"COc1ccc(/C=N/NC(=O)C2=C(C)NC(=O)NC2c2ccccc2F)cc1 (stereo not shown) [Compound 4d, (E)--4-(2-Fluorophenyl)-N-(4-methoxybenzyldene)-6-methyl-2-oxo-1,2,3,4-tetrahydropyrimidine-5-carbohydrazide]",
58.54 ± 0.27,37.63 ± 0.0026,COc1ccccc1/C=N/NC(=O)C1=C(C)NC(=O)NC1c1ccc(F)cc1F (stereo not shown) [Compound 5c],
63.8 ± 0.16,31.75 ± 0.0027,"CC1=C(C(=O)N/N=C/c2ccccc2O)C(c2ccccc2F)NC(=O)N1 (stereo not shown) [Compound 4b, (E)--4-(2-Fluorophenyl)-N-(2-hydroxybenzyldene)-6-methyl-2-oxo-1,2,3,4-tetrahydropyrimidine-5-carbohydrazide]",
64.78 ± 0.33,30.47 ± 0.0025,CC1=C(C(=O)N/N=C/c2ccccc2)C(c2ccccc2F)NC(=O)N1 (stereo not shown) [Compound 4a],
44.2 ± 0.28,65.31 ± 0.0021,"CC1=C(C(=O)N/N=C/c2ccccc2)C(c2ccc(F)cc2F)NC(=O)N1 (stereo not shown) [Compound 5a, (E)-N-Benzylidene-4-(2,4-difluorophenyl)-6-methyl-2-oxo-1,2,3,4-tetrahydropyrimidine-5-carbohydrazide]",

# Reference: article PMC9822036, “Virtual Screening, Synthesis, and Biological Evaluation of Some Carbohydrazide Derivatives as Potential DPP-IV Inhibitors” (Molecules, 2022)
